Laboratory results as given in patent publication US20050119337A1, “Methods of application of Schisandrin B in the preparation of anticancer medications” (priority 2003, published 2005).
Read-outs that look alike come from different tables or passages of the source.

Assays:
Format in all cases: cell-based
[1] = system: K562/vcr; test: Reversal of drug resistance, MTT assay, 48 h; details: for IC50: Homo sapiens, read-out: IC50 Control; for IC50 / IC50 Schisandrin B: 48 h; for RF (Reversal Folds): IC50 in the absence of Schisandrin B divided by IC50 in the presence of Schisandrin B (10 μg/ml); for IC50 Schisandrin B: anticancer drug toward K562/vcr in the presence of Schisandrin B (10 μg/ml)
Experimental: To illustrate a method for reversal of drug resistance by application of Schisandrin B, cell lines K562/adr, K562/vcr (X. […] H. […] Cells were cultured in RPMI-1640 medium containing 10% fetal calf serum. […] The logarithmic growing cells were seeded into a 96 well plate (20,000 cells/well). Specific anticancer drugs (set forth in Table 1) and Schisandrin B in combination were added into the wells containing the select cell lines. […] Cell viability was assessed by MTT assays as described in X.

[2] = system: human leukemia MDR cell line K562/adr; test: Reversal of drug resistance of K562/adr, MTT assay, 72 h; details: for IC50: Homo sapiens, read-out: IC50 Control; for RF (Schisandrin B): IC50 in the absence divided by IC50 in the presence of Schisandrin B (10 μg/ml); for RF (verapamil): IC50 in the absence divided by IC50 in the presence of verapamil (6 μg/ml); for IC50 Schisandrin B: anticancer drug in the presence of Schisandrin B (10 μg/ml); for IC50 verapamil: anticancer drug in the presence of verapamil (6 μg/ml)
Experimental: (§1) In this embodiment, the IC50 of anticancer drugs in the presence or absence of Schisandrin B toward MDR cells was determined.
(§2) MTT assays were carried out in triplicate against human leukemia MDR cell line K562/adr and human epidermoid carcinoma MDR cell line KBV200. MTT assays as described previously (X. Hu, et al., Chemotherapy 41:296-305 (1995)) were used to determine the cytotoxicity of each anticancer drug in the presence or absence of Schisandrin B or verapmil.
Cells were treated with specific anticancer drugs as set forth therein. “Ctrl” represents control cells treated with anticancer drugs in the absence of Schisandrin B or verapamil. “SchB” represents cells treated with anticancer drugs in the presence of Schisandrin B (10 μg/ml).

[3] = system: human epidermoid carcinoma MDR cell line KBV200; test: Reversal of drug resistance of KBV200, MTT assay, 72 h; details: for IC50: Homo sapiens, read-out: IC50 Control; for RF (Schisandrin B): IC50 in the absence / IC50 in the presence of Schisandrin B (10 μg/ml); for RF (Schisandrin B) / RF (verapamil) / IC50 Schisandrin B / IC50 verapamil: KBV200; for RF (verapamil): IC50 in the absence / IC50 in the presence of verapamil (6 μg/ml); for IC50 Schisandrin B: anticancer drug in the presence of Schisandrin B (10 μg/ml); for IC50 verapamil: anticancer drug in the presence of verapamil (6 μg/ml)
Experimental: as §1, §2
Cells were treated with specific anticancer drugs as set forth therein. […] “SchB” represents cells treated with anticancer drugs in the presence of Schisandrin B (10 μg/ml).

[4] = anticancer drug toward K562/vcr in the absence of Schisandrin B
[5] = anticancer drug alone, K562/adr, 72 h
[6] = anticancer drug alone, KBV200, 72 h

SMILES: O=C1c2c(O)ccc(O)c2C(=O)c2c(NCCNCCO)ccc(NCCNCCO)c21 [Mitoxantron, mitoxantron]
- IC50 [1, 4]: 0.79 ± 0.33 µg/mL
- RF (Reversal Folds) [1]: 4.0
- IC50 Schisandrin B [1]: 0.20 ± 0.06 µg/mL
- IC50 [2, 5]: 0.105 ± 0.0356 µg/mL
- RF (Schisandrin B) ([2]; K562/adr): >10.52
- RF (verapamil) ([2]; K562/adr): >10.52
- IC50 Schisandrin B ([2]; K562/adr): <0.01 µg/mL
- IC50 verapamil ([2]; K562/adr): <0.01 µg/mL
- IC50 [3, 6]: 0.0906 ± 0.0456 µg/mL
- RF (Schisandrin B) [3]: >9.06
- RF (verapamil) [3]: >9.06
- IC50 Schisandrin B [3]: <0.01 µg/mL
- IC50 verapamil [3]: <0.01 µg/mL

SMILES: CC(=O)O[C@H]1C(=O)[C@@]2(C)[C@H]([C@H](OC(=O)c3ccccc3)[C@]3(O)C[C@H](OC(=O)[C@H](O)[C@@H](NC(=O)c4ccccc4)c4ccccc4)C(C)=C1C3(C)C)[C@]1(OC(C)=O)CO[C@@H]1C[C@@H]2O [Taxol, taxol]
- IC50 [2, 5]: 0.342 ± 0.132 µg/mL
- RF (Schisandrin B) ([2]; K562/adr): 17.89
- RF (verapamil) ([2]; K562/adr): 23.94
- IC50 Schisandrin B ([2]; K562/adr): 0.01913 ± 0.0208 µg/mL
- IC50 verapamil ([2]; K562/adr): 0.0143 ± 0.0093 µg/mL
- IC50 [3, 6]: 0.089 ± 0.0079 µg/mL
- RF (Schisandrin B) [3]: 2.82
- RF (verapamil) [3]: 2.71
- IC50 Schisandrin B [3]: 0.0316 ± 0.0019 µg/mL
- IC50 verapamil [3]: 0.0329 ± 0.0079 µg/mL

SMILES: CN(Cc1cnc2nc(N)nc(N)c2n1)c1ccc(C(=O)N[C@@H](CCC(=O)O)C(=O)O)cc1 [Methotrexate, methotrexate]
- IC50 [1, 4]: > 10 µg/mL
- IC50 Schisandrin B [1]: >10 µg/mL

SMILES: COC(=O)C[C@](O)(CCCC(C)(C)O)C(=O)O[C@@H]1C(OC)=C[C@]23CCCN2CCc2cc4c(cc2[C@H]13)OCO4 [Homoharringtonine]
- IC50 [1, 4]: 0.55 ± 0.02 µg/mL
- RF (Reversal Folds) [1]: 11
- IC50 Schisandrin B [1]: 0.050 ± 0.01 µg/mL
- IC50 [2, 5]: 0.428 ± 0.108 µg/mL
- RF (Schisandrin B) ([2]; K562/adr): 4.44
- RF (verapamil) ([2]; K562/adr): 6.1
- IC50 Schisandrin B ([2]; K562/adr): 0.0964 ± 0.0312 µg/mL
- IC50 verapamil ([2]; K562/adr): 0.0701 ± 0.0042 µg/mL
- IC50 [3, 6]: 0.526 ± 0.199 µg/mL
- RF (Schisandrin B) [3]: 4.94
- RF (verapamil) [3]: 4.74
- IC50 Schisandrin B [3]: 0.1064 ± 0.0812 µg/mL
- IC50 verapamil [3]: 0.1108 ± 0.0076 µg/mL

SMILES: COc1cccc2c1C(=O)c1c(O)c3c(c(O)c1C2=O)C[C@@](O)(C(=O)CO)C[C@@H]3O[C@H]1C[C@H](N)[C@@H](O)[C@H](C)O1 [Epirubicin, epirubicin]
- IC50 [1, 4]: 2.56 ± 0.84 µg/mL
- RF (Reversal Folds) [1]: 5.81
- IC50 Schisandrin B [1]: 0.44 ± 0.14 µg/mL
- IC50 [2, 5]: 1.32 ± 0.322 µg/mL
- RF (Schisandrin B) ([2]; K562/adr): 4.35
- RF (verapamil) ([2]; K562/adr): 5.95
- IC50 Schisandrin B ([2]; K562/adr): 0.3033 ± 0.0812 µg/mL
- IC50 verapamil ([2]; K562/adr): 0.2218 ± 0.0909 µg/mL
- IC50 [3, 6]: 0.988 ± 0.152 µg/mL
- RF (Schisandrin B) [3]: 9.56
- RF (verapamil) [3]: 8.06
- IC50 Schisandrin B [3]: 0.1033 ± 0.0545 µg/mL
- IC50 verapamil [3]: 0.1226 ± 0.082 µg/mL

SMILES: COc1cccc2c1C(=O)c1c(O)c3c(c(O)c1C2=O)C[C@@](O)(C(C)=O)C[C@@H]3O[C@H]1C[C@H](N)[C@H](O)[C@H](C)O1 [Daunorubicin, daunorubicin]
- IC50 ([1]; K562/VCR): 0.45 ± 0.25 µg/mL
- RF (Reversal Folds) [1]: 40.9
- IC50 Schisandrin B [1]: 0.011 ± 0.0001 µg/mL
- IC50 ([2]; K562/Adr, 72 h): 0.505 ± 0.0728 µg/mL
- RF (Schisandrin B) ([2]; K562/adr): 5.16
- RF (verapamil) ([2]; K562/adr): 6.38
- IC50 Schisandrin B ([2]; K562/adr): 0.0977 ± 0.063 µg/mL
- IC50 verapamil ([2]; K562/adr): 0.0791 ± 0.0313 µg/mL
- IC50 ([3]; KBv200, 72 h): 0.305 ± 0.0728 µg/mL
- RF (Schisandrin B) [3]: 3.34
- RF (verapamil) [3]: 5.49
- IC50 Schisandrin B [3]: 0.0913 ± 0.003 µg/mL
- IC50 verapamil [3]: 0.0555 ± 0.0175 µg/mL

SMILES: CC[C@]1(O)C[C@H]2CN(CCc3c([nH]c4ccccc34)[C@@](C(=O)OC)(c3cc4c(cc3OC)N(C=O)[C@H]3[C@@](O)(C(=O)OC)[C@H](OC(C)=O)[C@]5(CC)C=CCN6CC[C@]43[C@@H]65)C2)C1 [Vincristine, vincristine]
- IC50 [1, 4]: > 20 µg/mL
- RF (Reversal Folds) [1]: >14.9
- IC50 Schisandrin B [1]: 1.34 ± 0.08 µg/mL
- IC50 [2, 5]: 0.916 ± 0.238 µg/mL
- RF (Schisandrin B) ([2]; K562/adr): 6.2
- RF (verapamil) ([2]; K562/adr): 10.51
- IC50 Schisandrin B ([2]; K562/adr): 0.1486 ± 0.0554 µg/mL
- IC50 verapamil ([2]; K562/adr): 0.0872 ± 0.0236 µg/mL
- IC50 [3, 6]: > 20 µg/mL
- RF (Schisandrin B) [3]: 127.2
- RF (verapamil) [3]: 20.26
- IC50 Schisandrin B [3]: 0.1572 ± 0.0946 µg/mL
- IC50 verapamil [3]: 0.9872 ± 0.01555 µg/mL

SMILES: CC[C@@]1(O)C(=O)OCc2c1cc1n(c2=O)Cc2cc3cc(O)ccc3nc2-1 [Hydroxycamptothecine]
- RF (Schisandrin B) ([2]; K562/adr): 8.84
- RF (verapamil) ([2]; K562/adr): 8.53
- IC50 Control [2, 5]: 0.3688 ± 0.0875 µg/mL
- IC50 Schisandrin B ([2]; K562/adr): 0.0417 ± 0.062 µg/mL
- IC50 verapamil ([2]; K562/adr): 0.0432 ± 0.0205 µg/mL
- RF (Schisandrin B) [3]: 3.07
- RF (verapamil) [3]: 3.48
- IC50 Control [3, 6]: 0.1618 ± 0.1501 µg/mL
- IC50 Schisandrin B [3]: 0.0527 ± 0.0613 µg/mL
- IC50 verapamil [3]: 0.0468 ± 0.0254 µg/mL
